We go through 11 molecules from US7659252B2, “Transdermal delivery peptides and method of use thereof” (Novomed Technologies, Inc. (Shanghai), priority 2005, dated 2010).

Data set [1] deals with male Sprague-Dawley rats. Nature of the data set: Transdermal PT-141 delivery: penile erections, chasing, mounting. The data set is classed as in vivo, rat. Particulars: cream, 1 h observation. As for the experimental part:
All behavioral studies were performed from 9:00 am to 4:00 pm at 24±1° C. While the animals were anesthetized with Urethane, the hair in an area of approximately 3.0 cm×3.0 cm in the interscapular region was carefully trimmed using scissors, with caution not to damage the skin (rats with any visible sign of skin damage were not used). Rats were allowed to recover for at least 24 hours before the experiments. One hundred ul cream containing indicated amounts of PT-141 was placed on the exposed skin and spread evenly using the side of a pipet tip.
Testing rats were divided into four groups with each group contain 6 rats.
Immediately after administration, rats were placed into individual polystyrene cages (32 cm long, 30 cm wide, 30 cm high) for behavioral observation. […] According to methods described by Berendsen and Broekkamp (1987, Eur. J. Pharmacol. 135(3):279-87), a penile erection was present when the following is observed: repeated pelvic thrust immediately followed by an upright position, an emerging engorged penis which the rat licks while eating the ejaculate. In addition, chasing was observed when the male moves forward along the female's side with its mouth licking the female's genital area, while mounting was present when the male's both front feet are off the ground and plant on the female's rump without ejaculation (Naby et al., 1992, Horm. Behav. 26:24; Randy et al., 1995, Nature 378:383).

In data set [2] the test system is Male Wistar rats. Nature of the data set: Phage delivery across trimmed abdominal skin, phage titre in tail-vein blood. The data set is classed as in vivo, rat. As for the experimental part: Phage delivery: Male Wistar rats (180 g to 220 g) were housed at a constant temperature (22° C.) and relative humidity (60%) with a fixed 12 hr. light/dark cycle, and free access to food and water. While the animals were anesthetized with Vrethane (5 ml/kg of 20% solution), the hair in an area of approximately 3.0 cm×3.0 cm on the abdomen was carefully trimmed using scissors, with caution not to damage the skin (rats with any visible sign of skin damage were not used). […] One hour after the phage administration blood was withdrawn from the tail vein and immediately assayed for phage titre according to manufacturer's protocol.

Data set [3] deals with male Sprague-Dawley rats. Description: Transdermal apomorphine delivery, APO-induced penile erections. The data set is classed as in vivo, rat. As to conditions: peptide 2.0 mg/kg + APO 0.8 mg/kg, cream, 2 h observation. As for the experimental part: All behavioral studies were performed from 9:00 am to 4:00 pm at 24±1° C. While the animals were anesthetized with Urethane, the hair in an area of approximately 3.0 cm×3.0 cm in the interscapular region was carefully trimmed using scissors, with caution not to damage the skin (rats with any visible sign of skin damage were not used). Rats were allowed to recover for at least 24 hours before the experiments. One hundred ul cream containing indicated amounts of apomorphine (APO) was placed on the exposed skin and spread evenly using the side of a pipet tip.
Immediately after administration, rats were placed into individual polystyrene cages (32 cm long, 30 cm wide, 30 cm high) for behavioral observation. […] According to methods described by Berendsen and Broekkamp (1987, Eur. J. Pharmacol. 135(3):279-87), a penile erection was present when the following is observed: repeated pelvic thrust immediately followed by an upright position, an emerging engorged penis which the rat licks while eating the ejaculate.

For data set [4], the system named is streptozotocin-induced diabetic rats. Description: Transdermal insulin delivery: serum insulin and blood glucose. The format is in vivo, rat. Particulars: for transdermal activity for delivering insulin compared to TD-1 / Blood Glucose Mean: 500 μg peptide + 70 μg insulin topical; for transdermal activity for delivering insulin compared to TD-1: 5 hrs; for Blood Glucose Mean: 5 hr value as % of the 0 hr value. As for the experimental part: Insulin delivery: In particular, male Wistar rats were given intraperitoneal injection of straptozotocin (60 mg/kg; Sigma-Aldrich, St. Louis, […].) to make these rats in diabetic states. Seven to 10 days post injection blood glucose level was measured using One-Touch Ultra Glucometer (LifeScan, Milpitas, Calif.). The straptozocin-induced (SD-induced) diabetic rats with blood glucose level of over 20 mmol/l (normal rats are between 4 and 6 mmol/l) were selected and randomly assigned to different treatment groups, with 6 rats for each group. […] The SLA/PP is a chemical enhancer combination recently identified from high-throughput screening (Karande et al., […], Nature Biotech. 22:192). Moreover, in other transdermal treatment groups, 100 μl saline was given to each rat in that group. For the subcutaneous treatment group, 14 μg of insulin per rat was injected.
Blood was drawn from the rat tail vein at these time points and assayed for blood glucose as described above and serum insulin by radioimmunoassay (Immunotech, Czech).
Blood glucose and serum insulin were measured before and 5 hrs. after the administration as described above.

Data set [5] has as its system hair follicles. Nature of the data set: Microscopy of skin sections: hair follicle penetration. The format is in vivo, rat. As to conditions: 10 μg insulin-FITC co-administered with enhancer, 2 h, abdominal skin. As for the experimental part: In particular, Insulin-FITC (Xi-an Huacheng, Xi-an, China) was dissolved in a small amount of DMF and subsequently diluted in saline for topical administration (final DMF concentration was <0.2%). […] After 2 hours the skin was carefully cleaned by 70% isopropyl alcohol and harvested by dissecting. The isolated skin was fixed with ice-cold 4% paraformaldehyde in 0.1 M phosphate buffer (PH 7.4) overnight. Following several washes with 10 mM phosphate-buffered saline (PBS PH7.4), skin samples were immersed in PBS containing 4.5% sucrose for 24 hours and then dehydrated in 10 mM PBS containing 30% sucrose till deposition. Floating horizontal and vertical sections with a thickness of 20 μm were obtained on a freezing microtome (CM1900 LEICA, Heidelberger, Nussloch, Germany). Cryosections were mounted onto poly-L-lysine-coated glasses, dried at room temperature and enveloped with 10 μl […] Mounting Medium (Vector Laboratories, Burlingame, Calif.). Fluorescence photomicrographs of the sections were obtained with OLYMPUS IX-70 microscope (OLYMPUS, Tokyo, Japan) using a filter set having excitation and emission length at 490-495 nm and 520-530 nm, respectively.

Data set [6] can be described thus: DLS measurements of insulin with or without TD-1. The format is physicochemical. As for the experimental part: The solutions were transferred to a centrifuge tube and spun for 10 min at 10000 rpm. 40 μl of the supernatant were filtered by ANODISC™ membrane filter with a pore size of 0.02 μm (Whatman International, Maidstone, UK) and taken for DLS measurement using DynaPro™ MS 800 (Wyatt technology Corporation/Protein Solutions, Santa Barbara, Calif.).

[7] abbreviates: co-administered TD-1 fixed at 500 μg, 5 hours.

As to `CCCC[C@H](NC(C)=O)C(=O)N[C@H]1CC(=O)NCCCC[C@@H](C(=O)O)NC(=O)[C@H](Cc2c[nH]c3ccccc23)NC(=O)[C@H](CCCNC(=N)N)NC(=O)[C@@H](Cc2ccccc2)NC(=O)[C@H](Cc2c[nH]cn2)NC1=O` [PT-141, Ac-Nle-Asp-His-D-Phe-Arg-Trp-Lys-OH], the “numbers of PEs, chasing and mounting” value in data set [1] (PT-141 160 μg/kg alone) is reported as “did not significantly increase”.
As for ACNATLPHQCG [AP-1, reference compound], the “numbers of PEs, chasing and mounting” value in data set [1] (PT-141 160 μg/kg + peptide 240 μg/kg) was “did not significantly increase”. In data set [2] (1 hour post topical administration), the “transdermal activity relative to phage PH-1” value is reported as “less than 0.2%”. Further, the “effect on transdermal activity of phages carrying the TD-2 peptide (PH-1)” value in data set [2] (peptide topically co-administered with PH-1) is on record as “no effect”. Moreover, in data set [3], the “effect on APO transdermal delivery (APO-induced penile erections)” value is “no effect”. Also, the “elevating serum insulin and lowering blood glucose levels” value in data set [4] (control enhancer co-administered with 70 μg insulin, topical) is “ineffective”. Besides, the “follicular penetration of insulin-FITC” value in data set [5] was “did not lead to follicular penetration”.
On to ACSASPSKHCG [TD-24], for which, in data set [4], the “transdermal activity for delivering insulin compared to TD-1” value (shortened to “transdermal activity … compared to TD-1”) is “statistically significant loss of activity” and the “Blood Glucose Mean” value is 82.17%.
With ACSSSASKHCG [TD-3], in data set [4], the “transdermal activity … compared to TD-1” value is “almost completely loss of activity” and the “Blood Glucose Mean” value came to 89.80%.
The like results for ACSSSPAKHCG [TD-6] were, in that order, “statistically significant loss of activity” and 66.65%.
On to ACSSSPSAHCG [TD-22], for which, in data set [4], the “transdermal activity … compared to TD-1” value is on record as “statistically significant loss of activity” and the “Blood Glucose Mean” value is 85.90%.
In the case of ACSSSPSDHCG [TD-4], in data set [4], the “transdermal activity … compared to TD-1” value is “almost completely loss of activity” and the “Blood Glucose Mean” value is reported as 89.68%.
The like results for ACSSSPSKACG [TD-23] were, in that order, “statistically significant loss of activity” and 81.36%.
On to ACSSSSSKHCG [TD-10], for which, in data set [4], the “transdermal activity … compared to TD-1” value is recorded as “only a slight, insignificant decrease in activity” and the “Blood Glucose Mean” value stood at 53.79%.
On to CSSSPSKHC [TD-2], for which, in data set [4], the “transdermal activity … compared to TD-1” value is “statistically significant loss of activity” and the “Blood Glucose Mean” value is given as 68.44%.
With “insulin: pharmaceutical-grade (>98%, 30 IU/mg) porcine insulin (Xuzhou Pharmaceuticals)”, the “MW-R Mean” value in data set [6] (pH 2.0, saline) is 14,585 Da; in data set [6] (pH 2.0, saline, listed as Ins), 14585 Da; in data set [6] (pH 3.0, saline), 20,343 Da; in data set [6] (pH 3.0, saline, listed as Ins), 20343 Da; in data set [6] (pH 7.0, saline) it was 32,328 Da; in data set [6] (pH 7.0, saline, listed as Ins), 32328 Da. In addition, the “Radius Mean” value was found to be 1.9 nm in data set [6] (pH 2.0, saline); 2.2 nm in data set [6] (pH 3.0, saline); 2.6 nm in data set [6] (pH 7.0, saline). In addition, in data set [4] (14 μg insulin, subcutaneous injection), the “duration of insulin-elevating and glucose-lowering effect” value is recorded as “less than 5 hours”. In addition, the “insulin amount needed to achieve the maximum response” value in data set [4] (setting [7]) is no less than 70 µg. Moreover, the “insulin amount sufficient to significantly enhance serum insulin and lower blood glucose” value in data set [4] (setting [7]) was 35 µg.
